IC50 and Ki data for eleven compounds are collected here from ChEMBL document CHEMBL1909046, “DrugMatrix in vitro pharmacology data”.

The target in test [1] is T1, Alpha-2A adrenergic receptor (Homo sapiens, UniProt P08913). Further: in other assays of this panel Not Active means under 50% inhibition at 10 µM.
T1 sequence (P08913 whole entry): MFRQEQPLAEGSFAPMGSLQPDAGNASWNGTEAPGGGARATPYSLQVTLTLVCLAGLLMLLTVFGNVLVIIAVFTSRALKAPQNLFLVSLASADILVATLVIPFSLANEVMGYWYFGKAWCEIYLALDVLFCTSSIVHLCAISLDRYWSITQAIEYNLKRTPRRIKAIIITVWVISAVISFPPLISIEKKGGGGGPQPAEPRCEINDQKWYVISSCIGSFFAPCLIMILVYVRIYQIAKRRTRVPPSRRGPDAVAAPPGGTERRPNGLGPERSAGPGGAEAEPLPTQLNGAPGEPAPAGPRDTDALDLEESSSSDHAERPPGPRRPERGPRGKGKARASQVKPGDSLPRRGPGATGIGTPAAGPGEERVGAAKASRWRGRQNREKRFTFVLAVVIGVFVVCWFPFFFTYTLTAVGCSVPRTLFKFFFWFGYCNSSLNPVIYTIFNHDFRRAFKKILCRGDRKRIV
It counts as cell membranes, Sf9, Membrane. As to conditions: sf9.

In test [2] the target is Beta-3 adrenergic receptor (Homo sapiens, UniProt P13945). Description: DRUGMATRIX: Adrenergic beta3 radioligand binding (ligand: [125I] Cyanopindolol). It counts as cell membranes, HEK293, Membrane. The note with it: Not Active = under 50% inhibition at 10 µM; for Ki: read-out: Ki.
Test [3] in a line: DRUGMATRIX: Glutamate, NMDA, Phencyclidine radioligand binding (ligand: [3H] TCP). It counts as cell membranes, Rattus norvegicus, Wistar, Cerebral cortex, Membrane. The note with it: Not Active = under 50% inhibition at 10 µM.
Test [4] deals with T2, Muscarinic acetylcholine receptor M5 (Homo sapiens, UniProt P08912).
T2 sequence (P08912 whole entry): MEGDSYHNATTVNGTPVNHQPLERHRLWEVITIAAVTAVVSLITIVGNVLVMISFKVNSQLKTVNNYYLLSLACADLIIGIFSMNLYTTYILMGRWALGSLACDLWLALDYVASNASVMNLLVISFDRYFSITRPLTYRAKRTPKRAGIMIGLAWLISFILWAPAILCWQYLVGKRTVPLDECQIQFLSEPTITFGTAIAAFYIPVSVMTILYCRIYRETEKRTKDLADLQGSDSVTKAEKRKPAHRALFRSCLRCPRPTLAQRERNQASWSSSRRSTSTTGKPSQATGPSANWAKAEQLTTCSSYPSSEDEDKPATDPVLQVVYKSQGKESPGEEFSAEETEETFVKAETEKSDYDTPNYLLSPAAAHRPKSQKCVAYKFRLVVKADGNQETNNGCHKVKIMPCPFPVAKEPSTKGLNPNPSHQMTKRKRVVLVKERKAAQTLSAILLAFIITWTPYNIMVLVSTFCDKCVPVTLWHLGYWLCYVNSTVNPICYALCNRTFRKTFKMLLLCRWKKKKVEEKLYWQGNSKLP
It counts as cell membranes, CHO-K1, Membrane.

Test [5] has as its target T3, Nitric oxide synthase, inducible (Mus musculus, UniProt P29477).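 Further: inhibition of iNOS enzyme activity measured with L-arginine as substrate; in other assays of this panel Not Active means under 50% inhibition at 10 µM.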
T3 sequence (P29477 whole entry): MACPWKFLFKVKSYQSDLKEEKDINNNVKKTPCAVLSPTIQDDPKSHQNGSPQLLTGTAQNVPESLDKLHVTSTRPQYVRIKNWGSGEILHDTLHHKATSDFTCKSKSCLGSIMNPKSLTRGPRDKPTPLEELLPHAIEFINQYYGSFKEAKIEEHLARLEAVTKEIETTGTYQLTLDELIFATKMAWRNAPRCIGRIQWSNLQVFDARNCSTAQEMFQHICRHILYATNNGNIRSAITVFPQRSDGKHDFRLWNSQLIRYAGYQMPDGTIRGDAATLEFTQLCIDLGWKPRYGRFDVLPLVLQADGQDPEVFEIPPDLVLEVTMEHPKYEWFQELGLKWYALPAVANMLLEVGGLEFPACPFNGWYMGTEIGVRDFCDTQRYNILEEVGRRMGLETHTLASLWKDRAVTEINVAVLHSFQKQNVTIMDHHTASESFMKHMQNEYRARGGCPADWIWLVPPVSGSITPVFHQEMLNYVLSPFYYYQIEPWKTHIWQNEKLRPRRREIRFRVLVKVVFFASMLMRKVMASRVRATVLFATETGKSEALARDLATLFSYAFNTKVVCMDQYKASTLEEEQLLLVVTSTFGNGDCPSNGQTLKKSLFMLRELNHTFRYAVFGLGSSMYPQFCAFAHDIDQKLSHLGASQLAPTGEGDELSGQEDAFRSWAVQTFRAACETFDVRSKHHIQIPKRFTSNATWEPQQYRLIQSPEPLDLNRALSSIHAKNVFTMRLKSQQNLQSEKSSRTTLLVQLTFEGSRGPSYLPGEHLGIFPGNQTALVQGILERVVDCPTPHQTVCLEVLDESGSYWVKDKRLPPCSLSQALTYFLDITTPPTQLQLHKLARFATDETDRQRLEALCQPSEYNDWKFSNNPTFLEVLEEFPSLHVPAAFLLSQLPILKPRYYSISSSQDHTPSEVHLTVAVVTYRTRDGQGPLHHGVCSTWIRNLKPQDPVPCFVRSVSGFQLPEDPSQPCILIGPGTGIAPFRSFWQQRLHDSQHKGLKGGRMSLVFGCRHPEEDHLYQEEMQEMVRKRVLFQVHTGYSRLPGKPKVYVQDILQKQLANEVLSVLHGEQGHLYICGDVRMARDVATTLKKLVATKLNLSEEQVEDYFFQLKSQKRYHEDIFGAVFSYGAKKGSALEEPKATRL
Also on record: species or system Escherichia coli.

Chain of Beta-3 adrenergic receptor (P13945 whole entry): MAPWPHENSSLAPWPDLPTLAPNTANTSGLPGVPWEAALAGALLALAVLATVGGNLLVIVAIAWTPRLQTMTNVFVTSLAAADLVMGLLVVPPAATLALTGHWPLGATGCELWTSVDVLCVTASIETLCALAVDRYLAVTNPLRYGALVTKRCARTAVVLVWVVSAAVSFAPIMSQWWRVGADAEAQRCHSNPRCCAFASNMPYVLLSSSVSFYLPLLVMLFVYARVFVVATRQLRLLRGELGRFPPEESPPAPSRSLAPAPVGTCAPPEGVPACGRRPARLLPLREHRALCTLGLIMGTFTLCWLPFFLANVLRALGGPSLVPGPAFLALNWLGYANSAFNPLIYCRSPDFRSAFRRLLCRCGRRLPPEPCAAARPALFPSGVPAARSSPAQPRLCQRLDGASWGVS

By IC50 is commonly meant the midpoint of a concentration-inhibition curve. The Ki is a measure of affinity in units of concentration, obtained from inhibition or displacement. For the compound `CCOc1nc2cccc(C(=O)O)c2n1Cc1ccc(-c2ccccc2-c2nnn[nH]2)cc1`, the IC50 result in test [1] was “Not Active”; in test [2] (read-out: IC50), 4.3 µM; in test [3], “Not Active”; in test [4] (cho-k1) it was “Not Active”; in test [5], “Not Active”. Besides, the Ki is 3.2 µM in test [2] and “Not Active” in test [3].

For the compound `O=C(O)CCCc1cccs1`, the IC50 result in test [1], in test [2] (hek293), in test [3], in test [4] (cho-k1) and in test [5] was “Not Active” in each case. In addition, in test [3], the Ki result was “Not Active”.

With `COc1ccccc1N`, the IC50 result in test [1], in test [2] (hek293), in test [3], in test [4] (cho-k1) and in test [5] was “Not Active” in each case. For the same compound, in test [3], the Ki entry was “Not Active”.

Regarding `O=C(c1ccccc1F)N1CCC(Cc2ccccc2)CC1`, the IC50 result in test [1], in test [2] (hek293), in test [3], in test [4] (cho-k1) and in test [5] was “Not Active” each time. Besides, the Ki entry in test [3] is recorded as “Not Active”.

For the compound `Cc1c(O)cccc1C(=O)N[C@@H](CSc1ccccc1)[C@H](O)CN1C[C@H]2CCCC[C@H]2C[C@H]1C(=O)NC(C)(C)C`, the IC50 entry in test [1] was “Not Active”; in test [2] (read-out: IC50), 34.1 µM; in test [3] it was “Not Active”; in test [4] (read-out: IC50) it was 86.1 µM; in test [5], “Not Active”. Also, the figures for the Ki in test [2], in test [3] and in test [4] (read-out: Ki) were 25.6 µM, “Not Active” and 61.8 µM, respectively.

Consider `CC(O)COC[C@H]1O[C@@H]2O[C@H]3[C@H](O)[C@@H](O)[C@@H](O[C@H]4[C@H](O)[C@@H](O)[C@@H](O[C@H]5[C@H](O)[C@@H](O)[C@@H](O[C@H]6[C@H](O)[C@@H](O)[C@@H](O[C@H]7[C@H](O)[C@@H](O)[C@@H](O[C@H]8[C@H](O)[C@@H](O)[C@@H](O[C@H]1[C@H](O)[C@H]2O)O[C@@H]8COCC(C)O)O[C@@H]7COCC(C)O)O[C@@H]6COCC(C)O)O[C@@H]5COCC(C)O)O[C@@H]4COCC(C)O)O[C@@H]3COCC(C)O` (stereo partly drawn) [2-HYDROXYPROPYL-BETA-CYCLODEXTRIN], for which the IC50 entry in test [1], in test [2] (hek293), in test [3], in test [4] (cho-k1) and in test [5] was “Not Active” in each case. Also, the Ki entry in test [3] was “Not Active”.

In the case of `NC(=O)c1cccc(N)c1` [3-AMINOBENZAMIDE], the half-inhibitory concentration (IC50) result in test [1], in test [2] (hek293), in test [3], in test [4] (cho-k1) and in test [5] was “Not Active” throughout. For the same compound, the Ki entry in test [3] is recorded as “Not Active”.

Turning to `C[C@H]1O[C@H](O[C@H]2[C@H](O)[C@@H](O)[C@@H](O[C@H]3[C@H](O)[C@@H](O)C(O)O[C@@H]3CO)O[C@@H]2CO)[C@H](O)[C@@H](O)[C@@H]1N[C@H]1C=C(CO)[C@@H](O)[C@H](O)[C@H]1O` (some centres undefined) [ACARBOSE], the IC50 entry in test [1], in test [2] (hek293), in test [3], in test [4] (cho-k1) and in test [5] was “Not Active” throughout. For the same compound, in test [3], the Ki result is recorded as “Not Active”.

For `CC[C@H]1[C@@H]2C[C@H]3[C@@H]4N(C)c5ccccc5[C@]45C[C@@H]([C@@H]2[C@H]5O)N3[C@@H]1O` [AJMALINE], the IC50 entry in test [1], in test [2] (hek293), in test [3], in test [4] (cho-k1) and in test [5] was “Not Active” throughout. In test [3], the Ki entry was “Not Active”.

As to `NC12CC3CC(CC(C3)C1)C2` [AMANTADINE], the IC50 result was “Not Active” in test [1]; “Not Active” in test [2] (hek293); 32 µM in test [3] (read-out: IC50); “Not Active” in test [4] (cho-k1); “Not Active” in test [5]. The Ki in test [3] (read-out: Ki) was determined as 21.7 µM.

For the compound `NCCCNCCSP(=O)(O)O` [AMIFOSTINE], the IC50 entry in test [1], in test [2] (hek293), in test [3], in test [4] (cho-k1) and in test [5] was “Not Active” throughout. Moreover, in test [3], the Ki entry is given as “Not Active”.
